Experimental data published in patent publication US8906928B2, “Substituted pyrazolo-pyrrolo-pyridine-dione compounds” (ArQule, Inc., priority 2009, dated 2014).

Key:
Type in all cases: cell-based
DLD-1 = assay: MTS assay (cell growth inhibition), DLD-1; settings: DLD-1 cells, 72 hours incubation with test compound; concentration not given
Method in brief: (§1)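 First, seed 3000 cells per well in low-serum (1% FBS) DMEM and culture 18 h. Next, add compounds prepared at 300× in DMSO and diluted 1:40 in DMEM; incubate 72 h. Finally, add MTS/PMS for 4 h and measure absorbance at 492 nm.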

NCI-H1299 = assay: MTS assay (cell growth inhibition), NCI-H1299; settings: NCI-H1299 cells, 72 hours incubation with test compound; concentration not given
Method in brief: as §1

PC-3 = assay: MTS assay (cell growth inhibition), PC-3; settings: PC-3 cells, 72 hours incubation with test compound; concentration not given
Method in brief: as §1

Kato III = assay: MTS assay (cell growth inhibition), Kato III; settings: Kato III cells, 72 hours incubation with test compound; concentration not given
Method in brief: as §1

MDA-MB = assay: MTS assay (cell growth inhibition), MDA-MB; settings: MDA-MB cells, 72 hours incubation with test compound; concentration not given
Method in brief: as §1

PACA-2 = assay: MTS assay (cell growth inhibition), PACA-2; settings: PACA-2 cells, 72 hours incubation with test compound; concentration not given
Method in brief: as §1

CCCCN(CCCC)CCN1C(=O)c2cnc3[nH]ncc3c2C1=O [Example 18, 7-[2-(dibutylamino)ethyl]pyrazolo[3,4-b]pyrrolo[3,4-d]pyridine-6,8(3H,7H)-dione]
A (A = 80-100% INHIBITION): MTS CELL KILL DATA (% INHIBITION) PC-3 (PC-3) | MTS CELL KILL DATA (% INHIBITION) MDA-MB (MDA-MB)
C (C = <50% INHIBITION): MTS CELL KILL DATA (% INHIBITION) DLD-1 (DLD-1) | MTS CELL KILL DATA (% INHIBITION) NCI-H1299 (NCI-H1299) | MTS CELL KILL DATA (% INHIBITION) Kato III (Kato III) | MTS CELL KILL DATA (% INHIBITION) PACA-2 (PACA-2)

CC(C)c1ccc(CN2C(=O)c3cnc4[nH]ncc4c3C2=O)cc1 [Example 14, 7-(4-isopropylbenzyl)pyrazolo[3,4-b]pyrrolo[3,4-d]pyridine-6,8(3H,7H)-dione]
A (A = 80-100% INHIBITION): MTS CELL KILL DATA (% INHIBITION) PC-3 (PC-3) | MTS CELL KILL DATA (% INHIBITION) MDA-MB (MDA-MB)
C (C = <50% INHIBITION): MTS CELL KILL DATA (% INHIBITION) DLD-1 (DLD-1) | MTS CELL KILL DATA (% INHIBITION) NCI-H1299 (NCI-H1299) | MTS CELL KILL DATA (% INHIBITION) PACA-2 (PACA-2)
B (B = 50-79% INHIBITION): MTS CELL KILL DATA (% INHIBITION) Kato III (Kato III)

O=C1c2cnc3[nH]ncc3c2C(=O)N1Cc1ccncc1 [Example 43, 7-(pyridin-4-ylmethyl)pyrazolo[3,4-b]pyrrolo[3,4-d]pyridine-6,8(3H,7H)-dione]
A (A = 80-100% INHIBITION): MTS CELL KILL DATA (% INHIBITION) PC-3 (PC-3) | MTS CELL KILL DATA (% INHIBITION) MDA-MB (MDA-MB) | MTS CELL KILL DATA (% INHIBITION) PACA-2 (PACA-2)
C (C = <50% INHIBITION): MTS CELL KILL DATA (% INHIBITION) DLD-1 (DLD-1) | MTS CELL KILL DATA (% INHIBITION) NCI-H1299 (NCI-H1299) | MTS CELL KILL DATA (% INHIBITION) Kato III (Kato III)

O=C1c2cnc3[nH]ncc3c2C(=O)N1CCc1c2ccccc2cc2ccccc12 [Example 129, 7-[2-(9-anthryl)ethyl]pyrazolo[3,4-b]pyrrolo[3,4-d]pyridine-6,8(3H,7H)-dione]
C (C = <50% INHIBITION): MTS CELL KILL DATA (% INHIBITION) NCI-H1299 (NCI-H1299) | MTS CELL KILL DATA (% INHIBITION) Kato III (Kato III) | MTS CELL KILL DATA (% INHIBITION) PACA-2 (PACA-2)
A (A = 80-100% INHIBITION): MTS CELL KILL DATA (% INHIBITION) DLD-1 (DLD-1) | MTS CELL KILL DATA (% INHIBITION) PC-3 (PC-3) | MTS CELL KILL DATA (% INHIBITION) MDA-MB (MDA-MB)

COc1c(C)cnc(CN2C(=O)c3cnc4[nH]ncc4c3C2=O)c1C [Example 72, 7-[(4-methoxy-3,5-dimethylpyridin-2-yl)methyl]pyrazolo[3,4-b]pyrrolo[3,4-d]pyridine-6,8(3H,7H)-dione]
C (C = <50% INHIBITION): MTS CELL KILL DATA (% INHIBITION) DLD-1 (DLD-1) | MTS CELL KILL DATA (% INHIBITION) NCI-H1299 (NCI-H1299) | MTS CELL KILL DATA (% INHIBITION) PACA-2 (PACA-2)
A (A = 80-100% INHIBITION): MTS CELL KILL DATA (% INHIBITION) PC-3 (PC-3) | MTS CELL KILL DATA (% INHIBITION) Kato III (Kato III) | MTS CELL KILL DATA (% INHIBITION) MDA-MB (MDA-MB)

COc1cccc(CN2C(=O)c3cnc4[nH]ncc4c3C2=O)c1OC [Example 92, 7-(2,3-dimethoxybenzyl)pyrazolo[3,4-b]pyrrolo[3,4-d]pyridine-6,8(3H,7H)-dione]
C (C = <50% INHIBITION): MTS CELL KILL DATA (% INHIBITION) DLD-1 (DLD-1) | MTS CELL KILL DATA (% INHIBITION) NCI-H1299 (NCI-H1299) | MTS CELL KILL DATA (% INHIBITION) PC-3 (PC-3) | MTS CELL KILL DATA (% INHIBITION) Kato III (Kato III) | MTS CELL KILL DATA (% INHIBITION) MDA-MB (MDA-MB) | MTS CELL KILL DATA (% INHIBITION) PACA-2 (PACA-2)

O=C1c2cnc3[nH]ncc3c2C(=O)N1CCCc1cccnc1 [Example 87, 7-(3-pyridin-3-ylpropyl)pyrazolo[3,4-b]pyrrolo[3,4-d]pyridine-6,8(3H,7H)-dione]
C (C = <50% INHIBITION): MTS CELL KILL DATA (% INHIBITION) DLD-1 (DLD-1) | MTS CELL KILL DATA (% INHIBITION) NCI-H1299 (NCI-H1299) | MTS CELL KILL DATA (% INHIBITION) PC-3 (PC-3) | MTS CELL KILL DATA (% INHIBITION) Kato III (Kato III) | MTS CELL KILL DATA (% INHIBITION) MDA-MB (MDA-MB) | MTS CELL KILL DATA (% INHIBITION) PACA-2 (PACA-2)

O=C1c2cnc3[nH]ncc3c2C(=O)N1Cc1ccccc1Br [Example 99, 7-(2-bromobenzyl)pyrazolo[3,4-b]pyrrolo[3,4-d]pyridine-6,8(3H,7H)-dione]
C (C = <50% INHIBITION): MTS CELL KILL DATA (% INHIBITION) DLD-1 (DLD-1) | MTS CELL KILL DATA (% INHIBITION) NCI-H1299 (NCI-H1299) | MTS CELL KILL DATA (% INHIBITION) PC-3 (PC-3) | MTS CELL KILL DATA (% INHIBITION) Kato III (Kato III) | MTS CELL KILL DATA (% INHIBITION) MDA-MB (MDA-MB) | MTS CELL KILL DATA (% INHIBITION) PACA-2 (PACA-2)

Cc1ccc(Cl)c(CN2C(=O)c3cnc4[nH]ncc4c3C2=O)c1F [Example 19, 7-(6-chloro-2-fluoro-3-methylbenzyl)pyrazolo[3,4-b]pyrrolo[3,4-d]pyridine-6,8(3H,7H)-dione]
B (B = 50-79% INHIBITION): MTS CELL KILL DATA (% INHIBITION) MDA-MB (MDA-MB)
A (A = 80-100% INHIBITION): MTS CELL KILL DATA (% INHIBITION) PC-3 (PC-3) | MTS CELL KILL DATA (% INHIBITION) Kato III (Kato III)
C (C = <50% INHIBITION): MTS CELL KILL DATA (% INHIBITION) DLD-1 (DLD-1) | MTS CELL KILL DATA (% INHIBITION) NCI-H1299 (NCI-H1299) | MTS CELL KILL DATA (% INHIBITION) PACA-2 (PACA-2)

O=C1c2cnc3[nH]ncc3c2C(=O)N1CCc1cccc2ccccc12 [Example 77, 7-[2-(1-naphthyl)ethyl]pyrazolo[3,4-b]pyrrolo[3,4-d]pyridine-6,8(3H,7H)-dione]
A (A = 80-100% INHIBITION): MTS CELL KILL DATA (% INHIBITION) DLD-1 (DLD-1) | MTS CELL KILL DATA (% INHIBITION) NCI-H1299 (NCI-H1299) | MTS CELL KILL DATA (% INHIBITION) PC-3 (PC-3) | MTS CELL KILL DATA (% INHIBITION) Kato III (Kato III) | MTS CELL KILL DATA (% INHIBITION) MDA-MB (MDA-MB) | MTS CELL KILL DATA (% INHIBITION) PACA-2 (PACA-2)

COc1ccc(CN2C(=O)c3cnc4[nH]ncc4c3C2=O)c(Cl)c1 [Example 109, 7-(2-chloro-4-methoxybenzyl)pyrazolo[3,4-b]pyrrolo[3,4-d]pyridine-6,8(3H,7H)-dione]
A (A = 80-100% INHIBITION): MTS CELL KILL DATA (% INHIBITION) DLD-1 (DLD-1) | MTS CELL KILL DATA (% INHIBITION) NCI-H1299 (NCI-H1299) | MTS CELL KILL DATA (% INHIBITION) PC-3 (PC-3) | MTS CELL KILL DATA (% INHIBITION) Kato III (Kato III) | MTS CELL KILL DATA (% INHIBITION) MDA-MB (MDA-MB) | MTS CELL KILL DATA (% INHIBITION) PACA-2 (PACA-2)

O=C1c2cnc3[nH]nc(-c4cncnc4)c3c2C(=O)N1CCc1ccccc1 [Example 151, 7-(2-phenylethyl)-1-pyrimidin-5-ylpyrazolo[3,4-b]pyrrolo[3,4-d]pyridine-6,8(3H,7H)-dione]
B (B = 50-79% INHIBITION): MTS CELL KILL DATA (% INHIBITION) PC-3 (PC-3)
A (A = 80-100% INHIBITION): MTS CELL KILL DATA (% INHIBITION) DLD-1 (DLD-1) | MTS CELL KILL DATA (% INHIBITION) Kato III (Kato III) | MTS CELL KILL DATA (% INHIBITION) PACA-2 (PACA-2)
C (C = <50% INHIBITION): MTS CELL KILL DATA (% INHIBITION) NCI-H1299 (NCI-H1299) | MTS CELL KILL DATA (% INHIBITION) MDA-MB (MDA-MB)

O=C1c2cnc3[nH]ncc3c2C(=O)N1CC1CCCO1 (stereo not drawn) [Example 107, 7-(tetrahydrofuran-2-ylmethyl)pyrazolo[3,4-b]pyrrolo[3,4-d]pyridine-6,8(3H,7H)-dione]
C (C = <50% INHIBITION): MTS CELL KILL DATA (% INHIBITION) DLD-1 (DLD-1) | MTS CELL KILL DATA (% INHIBITION) NCI-H1299 (NCI-H1299) | MTS CELL KILL DATA (% INHIBITION) Kato III (Kato III) | MTS CELL KILL DATA (% INHIBITION) PACA-2 (PACA-2)
B (B = 50-79% INHIBITION): MTS CELL KILL DATA (% INHIBITION) PC-3 (PC-3) | MTS CELL KILL DATA (% INHIBITION) MDA-MB (MDA-MB)
